Measured values reported in patent publication US20230157975A1, “TREATMENT OF PULMONARY FIBROSIS” (REGENALL LIMITED, priority 2020, published 2023).

Columns and labels:
[1] = test system: bleomycin-induced lung fibrosis; conditions: rats; by downregulating the TGF-β1/Smad3 signalling pathway; cited from earlier work
[2] = test system: Tendon injury; assay: Tendon injury, recovery following treatment with Vitamin A (Example 3); format: in vivo; conditions: Horse subject 1 (polo pony); oral 750,000 IU twice daily, at least 4 weeks; started approximately 20 days after injury
From the text: [table] Treatment with Vitamin A was initiated approximately 20 days after the initial injury. Retinyl palmitate (93.8% Retinol Equivalent) Oral 750,000 IU Twice daily (1,500,000 IU per day) Continuing (at least 4 weeks)

Row | Structure (SMILES) | Effect on bleomycin-induced lung fibrosis [1] | Functional recovery [2] | Size of the lesion by ultrasonography [2]
1 | CC1=C(/C=C/C(C)=C/C=C/C(C)=C/C(=O)O)C(C)(C)CCC1 [RA] | ameliorates bleomycin-induced lung fibrosis | – | –
2 | CCCCCCCCCCCCCCCC(=O)OC/C=C(C)/C=C/C=C(C)/C=C/C1=C(C)CCCC1(C)C [Vitamin A, Retinyl palmitate] | – | good | good reduction in the size of the lesion
